7 compounds from patent US12396995B2, “Substituted 4-aminoisoindoline-1,3-dione compounds and second active agents for combined use” (Celgene Corporation, priority 2019, dated 2025) can be followed below.

Assay [1] relates to cell lines from hematological malignancies. In words: Cell Titer Glo proliferation, Compound 1 in combination with second active agents. Format: cell-based. As to conditions: very sensitive cell lines such as JJN-3, SU-DHL2 or SU-DHL10; combined with Compound 1. How it is done: Cell Lines/Cells: Activated B-Cell (ABC) cell lines: TMD-8, SU-DHL-2, OCI-Ly10, RIVA, U2932; and Germinal Center B-cell (GCB) cell lines: SU-DHL10, Pfeiffer, WSU-DLCL2, SU-DHL4, DB; myeloma cell lines: H929, JJN3 and SK-MM1; acute myeloid leukemia cell line: HNT-34; acute lymphocytic leukemia cell line: Karpas-231; other lymphoma cell lines: Daudi, Karpas-299, HuT-102, L-428.
Alternatively, combination compound solutions were serially diluted from 5 μM starting concentration and serially diluted 6-fold for a 6-point dilution curve. […] Cells were added to each well and cultured for 3 days. […] For some other epigenetic agents (EPZ5676, C646, OICR-9429, ACY-241, GSK3484862, Compound C, UNC 0631, GSK3326595, LP99, A-196, CARM1 EZM2302) cells were cultured for 5 days due to their mechanism of action.
Plates were either made at a concentration of 10 μM or 1 μM diluted 3-fold for a 10-point dilution curve, with a final DMSO concentration of 0.2%. All cell line solutions were diluted to a concentration of 100,000 cells/mL and added to each well in a volume of 50 μL, with the exception of SU-DHL-6 solution, which was diluted to 25,000 cells/mL. At the end of the treatment period cells were lysed with Cell Titer Glo (CTG) reagents following manufacture recommendation. Luminescent signal was read using an Envision and data was normalized by DMSO for data analysis.
Data Analysis: The combination effect was analyzed by combining results from Highest Single Agent (HSA) and Bliss Independency methods. See, e.g., Foucquier J, Guedj M., Analysis of drug combinations: current methodological landscape. Pharmacol Res Perspect. 2015; 3(3):e00149. doi:10.1002/prp2.149.
Combined results of HSA and Bliss scores were used to define synergistic and additive effect of the combinations.
Background: Cellular ATP, detected with luciferase, serves as a proxy for viable cell number.

Assay [2] deals with WSU-DLCL2 DLBCL xenograft tumors. In words: WSU-DLCL2 (DLBCL) xenograft model, Compound 1 alone and with tazemetostat. Type of assay: in vivo, female SCID mice. Particulars: single agent tazemetostat 200 mg/kg oral BID, three weeks. How it is done: Anti-tumor activity of Compound 1 alone and in combination with tazemetostat was studied in WSU-DLCL2 (DLBCL) xenograft model. Compound 1 (1 mg/kg) was administered once daily for 5 consecutive days followed by 2 days off (5 D on/2 D off) and tazemetostat (200 mg/kg) was administered twice daily (BID).
(§1) Methods: Xenograft study was conducted with female SCID mice bearing WSU-DLCL2 DLBCL xenograft tumors. Female SCID mice were inoculated subcutaneously with WSU-DLCL2 cells in the flank region above the right hind leg. Following inoculation of animals, the tumors were allowed to grow to approximately 200 mm^3 prior to randomization. On day 14 following tumor cell inoculation, the mice bearing WSU-DLCL2 tumors ranging between 150 and 250 mm^3 were pooled together and randomized into various treatment groups. Compound 1 was formulated in 0.5% Methyl Cellulose, 0.25% Tween 80 and 50 mM Citrate pH 3 in water. Tazemetostat was formulated in CMC-Tween. Compound 1 (1 mg/kg) was orally administered with three cycles of once daily for 5 consecutive days followed by 2 days off starting from day 14 after tumor cell inoculation. Tazemetostat 200 mg/kg) was orally administered twice day (BID) for three weeks. In combination group the animals received Compound 1 (1 mg/kg/5 D on/2 D off) and tazemetostat (200 mg/kg, BID) simultaneously for three weeks starting from day 14 after tumor cell inoculation. Tumors were measured twice a week using calipers and tumor volumes were calculated using the formula of W^2×L/2. Statistical analysis was performed using a one-way or 2-way analysis of variance (ANOVA). Synergy calculations were performed using fractional product method.

Assay [3] has as its system DB DLBCL xenograft tumors. In words: DB (DLBCL) xenograft model, Compound 1 alone and with tazemetostat. As to conditions: single agent tazemetostat 200 mg/kg oral BID, three weeks. Format: in vivo, female SCID mice. How it is done: Anti-tumor activity of Compound 1 alone and in combination with tazemetostat was studied in DB (DLBCL) xenograft model. Compound 1 (3, 10 or 30 mg/kg) was administered once daily for 5 consecutive days followed by 2 days off (5 D on/2 D off) and tazemetostat (200 mg/kg) was administered twice daily (BID).
as §1, with “bearing DB” for “bearing WSU-DLCL2”, “with DB” for “with WSU-DLCL2”, “day 33” for “day 14”, “1 (3, 10 or 30” for “1 (1”, “Tazemetostat (200” for “Tazemetostat 200”, “1 (3, 10 or 30 mg/kg, 5” for “1 (1 mg/kg/5”

With `COc1cc(Nc2ncc3c(n2)-c2ccc(Cl)cc2C(c2c(F)cccc2OC)=NC3)ccc1C(=O)O` [alisertib, 4-((9-chloro-7-(2-fluoro-6-methoxyphenyl)-5H-benzo[c]pyrimido[4,5-e]azepin-2-yl)amino)-2-methoxybenzoic acid], the “effect on proliferation of combination with Compound 1 (HSA and Bliss scores)” value (“effect on proliferation of combination” for short) in assay [1] is “synergistic effects”.

Regarding `Cc1sc2c(c1C)C(c1ccc(Cl)cc1)=N[C@@H](CC(=O)Nc1ccc(O)cc1)c1nnc(C)n1-2` [birabresib, (S)-2-(4-(4-chlorophenyl)-2,3,9-trimethyl-6H-thieno[3,2-f][1,2,4]triazolo[4,3-a][1,4]diazepin-6-yl)-N-(4-hydroxyphenyl)acetamide], the “effect on proliferation of combination” value in assay [1] is recorded as “synergistic effects”.

Take `CO[C@H]1C[C@@H]2CC[C@@H](C)[C@@](O)(O2)C(=O)C(=O)N2CCCC[C@H]2C(=O)O[C@H]([C@H](C)C[C@@H]2CC[C@@H](OCCO)[C@H](OC)C2)CC(=O)[C@H](C)/C=C(\C)[C@@H](O)[C@@H](OC)C(=O)[C@H](C)C[C@H](C)/C=C/C=C/C=C/1C` [everolimus, 40-O-(2-hydroxyethyl)-rapamycin]: in assay [1], the “effect on proliferation of combination” value was “synergistic effects”.

On to `Cc1cnc(Nc2ccc(OCCN3CCCC3)cc2)nc1Nc1cccc(S(=O)(=O)NC(C)(C)C)c1` [fedratinib, N-tert-butyl-3-[(5-methyl-2-{4-[2-(pyrrolidin-1-yl)ethoxy]anilino}pyrimidin-4-yl)amino]benzenesulfonamide], for which the “effect on proliferation of combination” value in assay [1] is “synergistic effects”.

Consider `Cc1[nH]c2ccccc2c1CCNCc1ccc(/C=C/C(=O)NO)cc1` [panobinostat, (2E)-N-hydroxy-3-[4-({[2-(2-methyl-1H-indol-3-yl)ethyl]amino}methyl)phenyl]acrylamide], for which the “effect on proliferation of combination” value in assay [1] was “synergistic effects”.

As to `CCN(c1cc(-c2ccc(CN3CCOCC3)cc2)cc(C(=O)NCc2c(C)cc(C)[nH]c2=O)c1C)C1CCOCC1` [tazemetostat, N-[(1,2-dihydro-4,6-dimethyl-2-oxo-3-pyridinyl)methyl]-5-[ethyl(tetrahydro-2H-pyran-4-yl)amino]-4-methyl-4′-(4-morpholinylmethyl)-[1,1′-biphenyl]-3-carboxamide, reference compound], the “inhibition of tumor growth” value in assay [2] is reported as −50.5%. Besides, the “inhibition of tumor growth (TVR)” value is reported as 64.5% in assay [3] and −45.9% in assay [3] (listed as Tazemetostat).

With `CC[C@]1(O)C[C@H]2CN(CCc3c([nH]c4ccccc34)[C@@](C(=O)OC)(c3cc4c(cc3OC)N(C=O)[C@H]3[C@@](O)(C(=O)OC)[C@H](OC(C)=O)[C@]5(CC)C=CCN6CC[C@]43[C@@H]65)C2)C1` [vincristine], in assay [1], the “effect on proliferation of combination” value is reported as “synergistic effects”.
